Data taken from US20120100568A1, “SERUM-FREE MEDIUM FOR INDUCING PLURIPOTENT STEM CELLS QUICKLY WITH HIGH EFFICIENCY AND METHOD USING THEREOF” (GUANGZHOU INSTITUTES OF BIOMEDICINE AND HEALTH, CHINESE …, priority 2009, published 2012).

Tests used:
[1] = test system: MEF cells; experiment: Screening compounds in the iPS process in iPS-SF1 medium (relative GFP efficiency by FACS); format: cell-based, mouse; conditions: iPS-SF1, four factors, day 7; for effect on the efficiency of iPS reprogramming (relative GFP efficiency): PD0325901 1 μM, CHIR99021 3 μM, SU5402 2 μM; for enhancement of the efficiency of iPS reprogramming (relative GFP efficiency): TSA 20 nM, VPA 1 mM
Protocol: The main method for quantifying reprogramming efficiency is FACS analysis for Oct4-GFP positive cells. Based on the results of the timing process, the infected MEF cells were digested with trypsin at days 7 and 9 after infection and then analyzed through FACSCalibur. GFP positive cells received the gates of control signals from PE pathway, and 15,000 events were recorded as a minimum. Cells infected with pMXs-FLAG were used as negative control. In order to verify the efficiency as analyzed by FACS, GFP positive colonies were counted directly under a fluorescence microscope at day 14 after infection.
20,000 MEF cells were plated in each well of a twelve-well plate. The medium was iPS-SF1. Then, the cells were infected with viruses as described above in order to be transfected with the four factors. The compounds as shown in FIG. 6 were added into the medium at the following concentrations respectively: PD0325901 (1 μM), CHIR99021 (3 μM), SU5402 (2 μM, EMDbiosciences), Y-27632 (10 μM), vitamin E (25 μM, Sigma), vitamin A (1 μM, Sigma), A83-01 (0.5 μM, EMD), SB203580 (2 μM), Dorspmorphin (3 μM, Sigma), PFF-α (10 μM), TSA (20 nM, Sigma), VPA (1 mM, EMD), JAK inhibitor (0.3 μM, EMD), 5aza-DC (1 μM, Sigma), BIX01294 (1 μM), Bayk8644 (2 μM, EMD).
At day 7 after infection, cells were collected for FACS analysis as described above, and the relative GFP efficiency was measured. […] However, under conditions using the medium of the present invention, the compounds that had been previously reported as favorable to self-renewal of mouse embryonic stem cells, such as PD0325901, CHIR99021, and SU5402 reduced the efficiency of iPS reprogramming.

[2] = test system: MEF cells; experiment: Effects of medium components, growth factors and serum on iPS reprogramming efficiency (Oct4-GFP FACS); format: cell-based, mouse; conditions: for effect on the induction of the iPS reprogramming process: added to iPS-SF1 without bFGF, four factors, Oct4-GFP at day 7
Protocol: The main method for quantifying reprogramming efficiency is FACS analysis for Oct4-GFP positive cells. Based on the results of the timing process, the infected MEF cells were digested with trypsin at days 7 and 9 after infection and then analyzed through FACSCalibur. GFP positive cells received the gates of control signals from PE pathway, and 15,000 events were recorded as a minimum. Cells infected with pMXs-FLAG were used as negative control. In order to verify the efficiency as analyzed by FACS, GFP positive colonies were counted directly under a fluorescence microscope at day 14 after infection. LIF, N2, and bFGF in iPS-SF1 medium as listed in Table 1 were deleted respectively, or N2 and bFGF were added into DMEM+10% KOSR (i.e., containing no growth factor but containing NEAA, L-Glutamine or other ingredients at the same time, called as bKSR hereinafter) medium at concentrations equivalent to that of iPS-SF1 respectively, in order to detect the effects of LIF, N2, bFGF on the iPS reprogramming efficiency of MEF cells transfected with the four factors. […] In order to verify whether other tyrosine kinases and estrogens can play a role in inducing reprogramming of iPS cells in the medium of the present invention, after MEF cells were infected with the four-factor viruses, the following media were used instead, wherein the blank control was iPS-SF1 without bFGF, the experimental group was the blank medium (i.e., iPS-SF1 without bFGF) supplemented with various receptor tyrosine kinases (including basic fibroblast growth factor bFGF, epidermal growth factor EGF, vascular endothelial growth factor VEGF, insulin-like growth factor 2 IGF2, and estradiol), and a serum medium (FBS) was used as the negative control of this experiment.

Row | Compound | effect on the efficiency of iPS reprogramming (relative GFP efficiency) [1] | effect on the induction of the iPS reprogramming process [2] | other results
1 | Cc1c[nH]c(-c2cnc(NCCNc3ccc(C#N)cn3)nc2-c2ccc(Cl)cc2Cl)n1 [CHIR99021] | reduced | – | –
2 | O=C(NOC[C@H](O)CO)c1ccc(F)c(F)c1Nc1ccc(I)cc1F [PD0325901] | reduced | – | –
3 | Cc1c[nH]c(/C=C2\C(=O)Nc3ccccc32)c1CCC(=O)O [SU5402] | reduced | – | –
4 | CC(/C=C/C(=O)NO)=C\[C@@H](C)C(=O)c1ccc(N(C)C)cc1 [TSA] | – | – | enhancement of the efficiency of iPS reprogramming (relative GFP efficiency) [1]: 100%
5 | CCCC(CCC)C(=O)O [VPA] | – | – | enhancement of the efficiency of iPS reprogramming (relative GFP efficiency) [1]: 100%
6 | C[C@]12CC[C@@H]3c4ccc(O)cc4CC[C@H]3[C@@H]1CC[C@@H]2O [estrogen, estradiol] | – | comparable effects | –
7 | basic fibroblast growth factor [bFGF] | – | – | effects on iPS reprogramming efficiency ([2]; component added to bKSR or deleted from iPS-SF1, four factors, day 7): even higher than those of LIF
8 | epidermal growth factor (NSDSECPLSHDGYCLHDGVCMYIEALDKYACNCVVGYIGERCQYRDLKWWELR; Epidermal growth factor; UniProt P01133 971-1023, looked up) [EGF] | – | comparable effects | –
9 | insulin-like growth factor 2 [IGF2] | – | comparable effects | –
10 | vascular endothelial growth factor [VEGF] | – | comparable effects | –
